In paper PMC11915801, “Evolutionary trajectory of bacterial resistance to antibiotics and antimicrobial peptides in Escherichia coli” (mSystems, 2025):
In brackets after ≈: the same amount, converted by molar mass. Where two headings read alike, the source gives them in different places.

Assays:
[1] = tested on: antibiotic- and AMP-evolved strains of MG1655; settings: 1.5% H2O2, 37°C, 1 h in the dark, CFU counting
Experimental: Bacterial cells were proportionally mixed with 3% hydrogen peroxide solution and incubated at 37°C for 1 h in the dark. The reaction was terminated by adding a catalase solution with a final concentration of 1,000 U/mL. After diluting the mixture to an appropriate gradient, the drops were carried out on LB agar plates, and then the agar plates were placed in a 37°C incubator overnight for colony counting.

E. coli K-12 MG1655 = experiment: microbe, parasite or virus in culture; format: cell-based, Escherichia coli; settings: Escherichia coli
Experimental: (§1) The broth microdilution method was used to measure the MIC values of antibiotics and peptides according to the Clinical and Laboratory Standards Institute guidelines. The MIC value is defined as the lowest drug concentration without visible bacteria.
Eight antibiotics and ten AMPs at the sub-inhibitory concentration were prepared. A 300-µL system, including 260 µL of MH broth, 30 µL of prepared drug, and 10 µL of bacterial culture, was used for resistance passages. After 12 h of incubation at 37℃ and 200 rpm, 10 µL of the above bacterial culture was added into the new sterile drug-containing broth. MIC values of bacterial culture were determined. The drug concentration was adjusted according to the MIC value change until the end of the 120 passages.

AMP120 (evolved MG1655) = experiment: microbe, parasite or virus in culture; format: cell-based, Escherichia coli; settings: Escherichia coli, MG1655; broth microdilution; ampicillin-evolved strain
From the text: (§2) To ensure the stable resistance evolution and inheritance of MG1655 under different drugs, we randomly selected three monoclonals from the evolved strains. The final antibiotic-evolved strains were designated as AMP120, AZI120, CHL80, CIP120, DOX120, KAN80, NIT70, and TMP30, while the final AMP-evolved strains were named COL120, Ind120, Omi120, Pex120, PGLA120, Pleu120, R8120, SAAP120, LI120, and SLAP120.
as §1

AZI120 (evolved MG1655) = experiment: microbe, parasite or virus in culture; format: cell-based, Escherichia coli; settings: Escherichia coli, MG1655; broth microdilution; azithromycin-evolved strain
From the text: as §2, §1

CHL80 (evolved MG1655) = experiment: microbe, parasite or virus in culture; format: cell-based, Escherichia coli; settings: Escherichia coli, MG1655; broth microdilution; chloramphenicol-evolved strain
From the text: as §2, §1

CIP120 (evolved MG1655) = experiment: microbe, parasite or virus in culture; format: cell-based, Escherichia coli; settings: Escherichia coli; broth microdilution; ciprofloxacin-evolved strain
From the text: as §2, §1

COL120 (evolved MG1655) = experiment: microbe, parasite or virus in culture; format: cell-based, Escherichia coli; settings: Escherichia coli, MG1655; broth microdilution; colistin-evolved strain
From the text: as §2, §1

DOX120 (evolved MG1655) = experiment: microbe, parasite or virus in culture; format: cell-based, Escherichia coli; settings: Escherichia coli, MG1655; broth microdilution; doxycycline-evolved strain
From the text: as §2, §1

KAN80 (evolved MG1655) = experiment: microbe, parasite or virus in culture; format: cell-based, Escherichia coli; settings: Escherichia coli, MG1655; broth microdilution; kanamycin-evolved strain
From the text: as §2, §1

NIT70 (evolved MG1655) = experiment: microbe, parasite or virus in culture; format: cell-based, Escherichia coli; settings: Escherichia coli, MG1655; broth microdilution; nitrofurantoin-evolved strain
From the text: as §2, §1

TMP30 (evolved MG1655) = experiment: microbe, parasite or virus in culture; format: cell-based, Escherichia coli; settings: Escherichia coli, MG1655; broth microdilution; trimethoprim-evolved strain
From the text: as §2, §1

OO [H2O2, hydrogen peroxide]
survival rate of all strains after H2O2 treatment [1]: lower than 1%

C[C@H]1c2cccc(O)c2C(=O)C2=C(O)[C@]3(O)C(=O)C(C(N)=O)=C(O)[C@@H](N(C)C)[C@@H]3[C@@H](O)[C@@H]21 [DOX, Doxycycline]
MIC (E. coli K-12 MG1655; MG1655, 12 h, read-out: MIC of MG1655 under the pressure of the same drug, generation 10): 16 µg/mL | MIC (E. coli K-12 MG1655; MG1655, read-out: MIC of MG1655 under the pressure of the same drug, generation primary): 2 µg/mL | MIC (E. coli K-12 MG1655; MG1655, as E2, generation 20, read-out: MIC of MG1655 under the pressure of the same drug, generation 20): 32 µg/mL | MIC (E. coli K-12 MG1655; MG1655, as E2, generation 30, read-out: MIC of MG1655 under the pressure of the same drug, generation 30): 32 µg/mL | MIC (E. coli K-12 MG1655; MG1655, as E2, generation 40, read-out: MIC of MG1655 under the pressure of the same drug, generation 40): 32 µg/mL | MIC (E. coli K-12 MG1655; MG1655, as E2, generation 50, read-out: MIC of MG1655 under the pressure of the same drug, generation 50): 32 µg/mL | MIC (E. coli K-12 MG1655; MG1655, as E2, generation 60, read-out: MIC of MG1655 under the pressure of the same drug, generation 60): 32 µg/mL | MIC (E. coli K-12 MG1655; MG1655, as E2, generation 70, read-out: MIC of MG1655 under the pressure of the same drug, generation 70): 32 µg/mL | MIC (E. coli K-12 MG1655; MG1655, as E2, generation 80, read-out: MIC of MG1655 under the pressure of the same drug, generation 80): 32 µg/mL | MIC (E. coli K-12 MG1655; MG1655, as E2, generation 90, read-out: MIC of MG1655 under the pressure of the same drug, generation 90): 32 µg/mL | MIC (E. coli K-12 MG1655; MG1655, as E2, generation 100, read-out: MIC of MG1655 under the pressure of the same drug, generation 100): 32 µg/mL | MIC (E. coli K-12 MG1655; MG1655, as E2, generation 110, read-out: MIC of MG1655 under the pressure of the same drug, generation 110): 32 µg/mL | MIC (E. coli K-12 MG1655; MG1655, as E2, generation 120, read-out: MIC of MG1655 under the pressure of the same drug, generation 120): 32 µg/mL | MIC (AMP120 (evolved MG1655)): 2 µg/mL (≈ 4.5 µM) | MIC (AZI120 (evolved MG1655)): 8 µg/mL (≈ 18 µM) | MIC (CHL80 (evolved MG1655)): 16 µg/mL (≈ 36 µM) | MIC (CIP120 (evolved MG1655)): 16 µg/mL (≈ 36 µM) | MIC (COL120 (evolved MG1655)): 4 µg/mL (≈ 9 µM) | MIC (DOX120 (evolved MG1655)): 32 µg/mL (≈ 72 µM) | MIC (KAN80 (evolved MG1655)): 1 µg/mL (≈ 2.25 µM) | MIC (NIT70 (evolved MG1655)): 8 µg/mL (≈ 18 µM) | MIC (TMP30 (evolved MG1655)): 4 µg/mL (≈ 9 µM)
